Measured values from patent US20050032784A1, “Combination drug therapy for treating hypertension” (University of Florida Research Foundation, Inc., priority 2003, published 2005).

Legend:
[1] = tested on: CAD patients with hypertension; assay: INVEST trial: new diagnosis of diabetes; assay type: in vivo; details: for HR of developing diabetes: vs NCAS not taking trandolapril or hydrochlorothiazide; for Effect of add-on medication on risk of diabetes: preliminary analyses adjusted for 5 baseline covariates and average daily dose
Source text: The primary outcome was the first occurrence of death (all-cause), nonfatal MI, or nonfatal stroke by intention-to-treat analysis. The MI and stroke definitions are detailed on the INVEST Web site. These 3 components individually were the main secondary outcomes. Additional outcomes included time to most serious event (ranked from death as most serious, to MI, to stroke as least serious), cardiovascular death (definite or presumed), angina, cardiovascular hospitalizations, blood pressure control, cancer, Alzheimer disease, Parkinson disease, and gastrointestinal tract bleeding. Shortly after the study started, new information became available on the potential for ACE inhibitors to prevent or delay the onset of diabetes. Accordingly, at the recommendation of the independent data safety and monitoring committee, new diagnosis of diabetes was added as an outcome early in the recruitment phase of the study.
Of the 8098 CAS patients without diabetes at entry, 569 (7.03%) were diagnosed as having diabetes during follow-up. Of the 8078 NCAS patients without diabetes at entry, 665 (8.23%) were diagnosed as having diabetes during follow-up (RR, 0.85; 95% CI, 0.77-0.95). Patients in the CAS group were also less likely to die or develop diabetes compared with patients in the NCAS group (1050 [12.97%] vs 1177 [14.57%]; RR, 0.89; 95% CI, 0.82-0.96) and less likely to have an event in the primary outcome cluster or develop diabetes (1185 [14.63%] vs 1313 [16.25%]; RR, 0.90; 95% CI, 0.84-0.97). To explore possible explanations for reduced risk of diabetes, we conducted preliminary analyses adjusting for the 5 pre-specified baseline covariates (age, race, sex, prior MI, and prior heart failure) and included factors for average daily dose of add-on medication (trandolapril and/or hydrochlorothiazide). […] A 2-mg dose of trandolapril was associated with a HR of 0.86 (95% CI, 0.74-1.00) and a 4-mg dose was associated with a HR of 0.77 (95% CI, 0.62-0.96). In the NCAS group, a 2-mg dose of trandolapril was associated with a HR of 0.99 (95% CI, 0.90-1.08) and a 4-mg dose was associated with a HR of 0.98 (95% CI, 0.82-1.18). […] Compared with those in the NCAS group not taking either trandolapril or hydrochlorothiazide, the addition of 12.5 mg of hydrochlorothiazide was associated with a HR of 1.17 (95% CI, 1.09-1.25) and 25 mg of hydrochlorothiazide was associated with a HR of 1.36 (95% CI, 1.18-1.57).

[2] = tested on: hypertensive patients randomized to the calcium antagonist strategy; assay: INVEST subanalysis: BP reduction by addition of HCTZ to verapamil SR/trandolapril; assay type: in vivo
Experimental: Subanalysis Design: INVEST afforded an opportunity to analyze unique and specific combinations of antihypertensive drugs due to the data accumulated for prescription date, drug, regimen, and dose. One subanalysis was performed to evaluate the incremental benefit of BP reduction by the addition of HCTZ to various dose combinations of verapamil SR and trandolapril in patients randomized to the calcium antagonist strategy. […]
Patients who received the verapamil SR/trandolapril combination as their first randomized drug prescription in INVEST, and who received no other drug prescription or gap in medication until their first HCTZ prescription added to the initial verapamil SR/trandolapril combination dose, were selected for this subgroup analysis. […] Summary statistics for change from baseline for SBP and DBP to the last observation at each dose level for both the verapamil SR/trandolapril dual combination and the verapamil SR/trandolapril/HCTZ triple combination were analyzed. […] In this subanalysis the incremental effect of HCTZ on BP reduction was evaluated for any dose of HCTZ.

[3] = Group 1, added to verapamil SR/trandolapril 180/2 mg
[4] = Group 2, added to verapamil SR/trandolapril 240/2 mg
[5] = Group 3, added to verapamil SR/trandolapril 240/4 mg

| SMILES | HR of developing diabetes ([1]; 25 mg, CAS group) | HR of developing diabetes ([1]; 25 mg, NCAS group) | HR of developing diabetes ([1]; addition of 12.5 mg, CAS group) | HR of developing diabetes ([1]; addition of 12.5 mg, NCAS group) | Effect of add-on medication on risk of diabetes [1] | Decrease of mean diastolic BP with the addition of HCTZ [2, 3] [mm Hg] | Decrease of mean systolic BP after the addition of HCTZ [2, 3] [mm Hg] | Decrease of mean diastolic BP with the addition of HCTZ [2, 4] [mm Hg] | Decrease of mean systolic BP after the addition of HCTZ [2, 4] [mm Hg] | Decrease of mean diastolic BP with the addition of HCTZ [2, 5] [mm Hg] | Decrease of mean systolic BP after the addition of HCTZ [2, 5] [mm Hg] | Incremental BP reduction with addition of HCTZ ([2]; each verapamil SR/trandolapril combination group, listed as HCTZ) | HR of developing diabetes ([1]; 2-mg dose, CAS group) | HR of developing diabetes ([1]; 2-mg dose, NCAS group) | HR of developing diabetes ([1]; 4-mg dose, CAS group) | HR of developing diabetes ([1]; 4-mg dose, NCAS group) |
| --- | --- | --- | --- | --- | --- | --- | --- | --- | --- | --- | --- | --- | --- | --- | --- | --- |
| NS(=O)(=O)c1cc2c(cc1Cl)NCNS2(=O)=O [hydrochlorothiazide] | 1.28 | 1.36 | 1.11 | 1.17 | non-statistically significant increased risk of diabetes | 1.1 | 7.1 | 4.2 | 6.5 | 2.3 | 3.2 | clinically significant, incremental BP reduction | – | – | – | – |
| CCOC(=O)[C@H](CCc1ccccc1)N[C@@H](C)C(=O)N1[C@H](C(=O)O)C[C@H]2CCCC[C@@H]21 [trandolapril] | – | – | – | – | appeared to confer a protective effect in the CAS group | – | – | – | – | – | – | – | 0.86 | 0.99 | 0.77 | 0.98 |
